Test results from US8912227B1, “Bicyclic pyrrole derivatives useful as agonists of GPR120” (Janssen Pharmaceutica NV, priority 2014, dated 2014).
pEC50: −log10 of the molar value.

What was measured:
C57bl/6J Mice = experiment: GPR120 C57bl6 mouse IPGTT; type: in vivo; details: 30.0 mg/kg, dosed 30 minutes prior to IP glucose 1.5 g/kg; compared with vehicle
Experimental: Male, C57bl/6J Mice were ordered in at 8 weeks of age from Jackson Labs. Individual mice weighed anywhere in the range of 25-30 grams on study day. The mice were fasted, with removal of food occurring at 7 am on the morning of the study. Animals were moved into the room at 10:00 am, to give them time to acclimate. Glucose (insulin syringes) was drawn up either the night before or the morning of the study. Glucose was dosed (IP) at 1.5 g/kg at 7.5 ml/kg (20% glucose straight TEKNOVA, 250 ml sterile bottle w/ catalogue number G0525). Test compounds were kept spinning and were only drawn into the syringes prior to study commencement. Animals were bled via tail snip to determine basal glucose levels prior to dosing of treatments. An Ascensia BREEZE Blood Glucose Monitoring System by Bayer (using unique 10-test disks) was used for determining glucose levels. The bleeds started at approximately 12:45 pm and dosing started, at 1-minute intervals, immediately after. All groups were dosed 30 minutes prior to glucose administration at a dose volume of 10 ml/kg (the dose volume was calculated separately for each individual animal). Thirty minutes after the first dose animals were bled again for a second baseline, or T=0, and immediately dosed with glucose via an i.p. injection. The exact dose volume for glucose was also calculated separately for each individual animal. […]

[1] = target: T1, short form of the GPR120 receptor (Homo sapiens, UniProt Q5NUL3); experiment: Human GPR120 DiscoveRx PathHunter β-Arrestin assay, Procedure β-arrestin B; type: cell-based; details: PathHunter CHO-K1 GPR120S β-Arrestin cell line, 5000 cells/well
T1 construct: host or cells: PathHunter CHO-K1 GPR120S β-Arrestin Cell Line
T1 sequence (Q5NUL3 whole entry): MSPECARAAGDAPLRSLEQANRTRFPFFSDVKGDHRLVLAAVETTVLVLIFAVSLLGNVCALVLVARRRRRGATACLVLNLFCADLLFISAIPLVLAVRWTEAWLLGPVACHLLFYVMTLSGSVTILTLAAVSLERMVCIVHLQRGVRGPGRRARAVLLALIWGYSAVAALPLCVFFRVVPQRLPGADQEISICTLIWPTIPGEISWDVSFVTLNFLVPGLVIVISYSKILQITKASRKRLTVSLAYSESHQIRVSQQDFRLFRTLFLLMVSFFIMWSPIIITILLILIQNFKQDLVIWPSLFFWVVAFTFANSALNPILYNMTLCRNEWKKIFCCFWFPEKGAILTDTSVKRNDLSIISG
T1 sequence (P32121 whole entry partner): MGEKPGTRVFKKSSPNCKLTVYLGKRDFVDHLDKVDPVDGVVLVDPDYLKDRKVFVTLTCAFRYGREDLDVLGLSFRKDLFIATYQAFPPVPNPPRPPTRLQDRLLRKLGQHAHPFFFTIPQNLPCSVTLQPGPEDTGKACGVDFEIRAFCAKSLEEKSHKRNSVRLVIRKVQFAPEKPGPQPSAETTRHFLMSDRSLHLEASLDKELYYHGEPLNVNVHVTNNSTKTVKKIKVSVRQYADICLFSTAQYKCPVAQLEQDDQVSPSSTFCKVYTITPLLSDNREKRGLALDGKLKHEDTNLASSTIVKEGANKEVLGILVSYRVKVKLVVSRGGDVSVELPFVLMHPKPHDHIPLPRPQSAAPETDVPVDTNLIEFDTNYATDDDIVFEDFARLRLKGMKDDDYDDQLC
Text: The binding of an agonist (medium/long chain fatty acids or small molecule agonists) to the G-protein-coupled receptor GPR120 activates phospholipase C, leading to release of intracellular Ca^+2 through the generation of inositol 1,4,5-trisphosphate (InsP3 or IP3). GPR120 activation can also trigger intracellular signaling via recruitment of β-Arrestin. In the present method, agonist-induced activation of the human GPR120 receptor is monitored through the use of PathHunter CHO-K1 GPR120 β-Arrestin Cell Line engineered by DiscoveRx, as detailed below. The cell lines are designed to co-express both the ProLink/Enzyme Donor (PK)-tagged GPCR and the Enzyme […] (EA)-tagged Beta-Arrestin fusion proteins. Upon GPR120 receptor stimulation/activation, the EA-tagged β-Arrestin portion is translocated to the tagged receptor, where the two enzyme fragments are brought within close proximity. Under these conditions, these fragments can interact and form an active Beta-gal enzyme complex through Enzyme Fragment Complementation (EFC). This active Beta-gal complex can enzymatically hydrolyse the substrate to produce a detectable light signal; therefore, activation as a function of agonist concentration can be expressed as an EC50 value to determine relative compound activities. This in vitro assay therefore serves to assess compound agonist activity of the GPR120.
In Procedure β-arrestin B the cells used were PathHunter CHO-K1 GPR120S β-Arrestin Cell Line, expressing the short form of the GPR120 receptor (Accession #NM_181745), with 5000 cells/well.
The selected CHO-K1 GPR120 β-Arrestin cells were cultured in Ham's F12 media supplemented with 10% fetal bovine serum (FBS), 1% Glutamine, 1×p/s, 800 μg/ml G418 and 300 μg/ml Hygromycin B (for selection). Cell stocks were maintained and grown in a sub-confluent state using standard cell culture procedures. The day before the experiment, the cells were harvested with non-enzymatic cell dissociation buffer and re-suspended in complete growth media at the desired concentration. A Corning 384-plate was then seeded with the proper number of cells in a volume of 25 μL, per well. The seeded plates were incubated overnight at 37° C.
On the day of the experiment, the Assay Buffer containing (a) HBSS with Ca^++ and Mg^++, (b) 20 mM HEPES, and (c) 0.1% BSA stabilizer (pH 7.4) was prepared. The growth medium was gently removed from the cell plates and 20 μL of Assay Buffer added to each well. The plate was then incubated at 37° C. for 60 mins. Test compounds were serially diluted in Assay Buffer to desired concentrations (more particularly, to one or more of the following μM concentrations: 25 μM, 12.5 μM, 6.25 μM, 3.125 μM, 1.562 μM, 0.781 μM, 0.391 μM, 0.195 μM, 0.098 μM, 0.049 μM, 0.024 μM, 0.012 μM). Five μl of compound dilution was then added to each well and the plate incubated at 37° C. for 90 mins. The detection reagents were prepared according to the manufacture's instruction. Twelve μL of the detection reagents were added to each well and the plate incubated at room temperature for 60 mins.
The plates were read on an EnVision instrument, using Protocol name: Luminescence, Plate type: 384 Costar, Measurement height: 3 mm, Measurement time: 1 s, Aperture: 384 Plate aperture. The % activity relative to the positive control was calculated using the following equation:
The % Activity values were plotted versus the concentration of test compound and fitted to a sigmoidal dose-response curve with a Hill slope=1 (fixed value) using nonlinear regression with GraphPad Prism 5.0 to calculate the EC50 values. The Fitting Equation was: Y=Bottom+(Top−Bottom)/(1+10^((LogEC50−X)*HillSlope)), where X is the log of the concentration and Y is the response.

With Cc1c(CCC(=O)O)ccc(OCc2cccn2-c2ccc(Cl)cc2)c1C [Compound 1, 3-(4-{[1-(4-Chlorophenyl)-1H-pyrrol-2-yl]methoxy}-2,3-dimethylphenyl)propanoic acid] the “GPR120 C57bl6 Mouse IPGTT Results” value (C57bl/6J Mice) was “not different”.
OCCCc1ccc(OCc2c(C(F)(F)F)ccn2-c2ccc(Cl)cc2)c(F)c1F [Compound 29, 3-(4-{[1-(4-Chlorophenyl)-3-(trifluoromethyl)-1H-pyrrol-2-yl]methoxy}-2,3-difluorophenyl)propan-1-ol] gave a pEC50 [1] of 7.20.
CCc1ccc(-n2ccc(C(F)(F)F)c2COc2ccc(CCC(=O)O)c(F)c2F)cc1 [Compound 34, 3-(4-[[1-(4-ethylphenyl)-3-(trifluoromethyl)-1H-pyrrol-2-yl]methoxy]-2,3-difluorophenyl)propanoic acid] showed a pEC50 [1] of 6.75.
Cc1ccc(-n2ccc(C(F)(F)F)c2COc2c(F)cc(CCC(=O)O)cc2F)cc1 [Compound 39, 3-(3,5-difluoro-4-[[1-(4-methylphenyl)-3-(trifluoromethyl)-1H-pyrrol-2-yl]methoxy]phenyl)propanoic acid] showed a pEC50 [1] of 6.66.
